# Values joined by “and” are separate entries in the source; they are usually repeats but may differ in a detail not shown here. Identical values can stand only once.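 Following 48 hours of exposure in 96-well plates, responses at five concentrations were used to interpolate endpoints linearly. At the GI50, growth is halved. TGI: concentration producing complete growth inhibition.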
# How the values were obtained:
# Assay in all cases: NCI tumour cell line growth inhibition, 48 h
# MCF7 breast = system: MCF7 breast
# OVCAR-8 ovarian = system: OVCAR-8 ovarian
# KM12 colon = system: KM12 colon
# LOX IMVI melanoma = system: LOX IMVI melanoma
# SW-620 colon = system: SW-620 colon
# PC-3 prostate = system: PC-3 prostate
# MOLT-4 leukemia = system: MOLT-4 leukemia
# CAKI-1 renal = system: CAKI-1 renal
Structure (SMILES),GI50 (MCF7 breast) [µM],TGI (MCF7 breast),GI50 (OVCAR-8 ovarian) [µM],TGI (OVCAR-8 ovarian),GI50 (KM12 colon) [µM],TGI (KM12 colon),GI50 (LOX IMVI melanoma) [µM],TGI (LOX IMVI melanoma),GI50 (SW-620 colon) [µM],TGI (SW-620 colon),GI50 (PC-3 prostate) [µM],TGI (PC-3 prostate),GI50 (MOLT-4 leukemia) [µM],TGI (MOLT-4 leukemia),GI50 (CAKI-1 renal) [µM],TGI (CAKI-1 renal)
CC[C@]12C=CCN3CC[C@@]4(c5ccc(OC)cc5N(C)[C@H]4[C@@](O)(C(=O)OC)[C@@H]1OC(=O)CCCN1CCN(CCCC(=O)O[C@@H]4[C@]5(CC)C=CCN6CC[C@@]7(c8ccc(OC)cc8N(C)[C@H]7[C@@]4(O)C(=O)OC)[C@@H]65)CC1)[C@@H]32,0.548,1.96 µM,1.55,3.36 µM,0.985,2.31 µM,0.399,1.5 µM,1.6,3.21 µM,0.35,1.57 µM,0.483,1.87 µM,0.436,1.91 µM
CCCCCCCCCCCCOC1C(C(COC2OC(C(O)CO)C3OC(C)(C)OC23)OC(=O)Nc2ccccc2)OC2OC(C)(C)OC21 (stereo not given),3.85,13.6 µM,8.24,26.2 µM,2.99,8.76 µM,7.82,20.9 µM,9.21,27.2 µM,3.57,13.1 µM,0.127,5.14 µM,12,25.9 µM
FC(F)(F)c1cccc(CNC2CCN(CCc3ccccc3)CC2)c1,16,34.6 µM,18.2,43.8 µM,22.5,56.6 µM,15.5,29.1 µM,36.9,> 100 µM,32,> 100 µM,20.5,70.4 µM,22.4,> 100 µM
OC[C@H]1C[C@](O)(c2ccc(F)cc2)[C@@H](c2ccc(F)cc2)O1,> 100,> 100 µM,> 100,> 100 µM,> 100,> 100 µM,> 100,> 100 µM,> 100,> 100 µM,> 100,> 100 µM,> 100,> 100 µM,> 100,> 100 µM
OCc1ccc(N2CCc3ccc(F)cc3C2)cc1Cl,0.137,11 µM,7.05,20.7 µM,10.5,26 µM,3.73,12.3 µM,0.18,11.2 µM,12.7,27.4 µM,4.48,30.5 µM,1.01,9.62 µM
CN(c1ccccc1)c1c2ccccc2nc2[nH]c3ccccc3c12,0.769,–,2.46,> 29.3 µM,2.24,7.4 µM,1.43,4 µM,2.04,8.82 µM,2.78,14.7 µM,0.841,> 29.6 µM,1.92,5.92 µM
CCOC(=O)C#Cc1c(C(=O)OCC)nnn1[C@@H]1O[C@H](COC)[C@@H](OC)[C@H]1OC,2.85,12.7 µM,6.94,21.7 µM,16.7,33.3 µM,1.16,2.58 µM,1.99,4.06 µM,16.7,31.7 µM,1.92,4.39 µM,1.74,3.14 µM
Cc1cccc(Oc2ccc(Nc3ncnc4ccc(NC(=O)CN(C)C)cc34)cc2Cl)c1,1.69,3.87 µM,2.72,11.3 µM,2,4.09 µM,1.53,2.86 µM,1.64,3.05 µM,2.02,6.32 µM,2.37,6.82 µM,1.1,2.97 µM
CC1(C)CC2=NO[Se]3=C2C(=NO3)C1,–,14.2 µM,–,16.4 µM,–,13.8 µM,–,9.39 µM,–,12.3 µM,–,3.24 µM,–,9.41 µM,–,11.4 µM
N=C(N)SCc1ccc(Cl)c2ccccc12 (tested in a mixture with another compound),–,24.7 µM and 27.9 µM,–,50.1 µM and > 77.8 µM,–,28.3 µM and 27.7 µM,–,33.1 µM and 36.6 µM,–,28.5 µM and 27.6 µM,–,24.3 µM and 25.3 µM,–,17.3 µM and 4.25 µM,–,19.2 µM and 24.4 µM
NS(=O)(=O)c1cc2c(cc1Cl)NCNS2(=O)=O,–,> 100 µM,–,> 100 µM,–,> 100 µM,–,> 100 µM,–,> 100 µM,–,> 100 µM,–,> 100 µM,–,> 100 µM
COc1cc(NC(=O)COc2ccccc2)c(C(N)=O)cc1OC,0.661,> 100 µM,3.01,> 100 µM,0.442,> 100 µM,1.81,> 100 µM,0.646,> 100 µM,2.23,> 100 µM,2.91,> 100 µM,3.8,> 100 µM
COc1ccc(Cn2c(Br)c3c(c2-c2cc(OC)c(OC)c(OC)c2)CCc2sc(N)nc2-3)cc1,0.371,18.9 µM,1.32,16.9 µM,1.18,> 30 µM,0.869,6.14 µM,0.515,7.65 µM,1.57,> 100 µM,1.51,> 29.7 µM,0.765,> 28.2 µM
COc1cc(/C=C/C(=O)c2nc3cc(F)ccc3nc2C)cc(OC)c1OC,2.3,> 100 µM,5.38,> 100 µM,3.49,> 100 µM,2.84,> 22.1 µM,5.34,> 100 µM,6.05,> 100 µM,1.99,> 22.3 µM,7.42,> 100 µM
COc1ccc(-n2c(=O)c3ccccc3n(Cc3ccc(C(=O)NO)cc3)c2=O)cc1,2.68,76.4 µM,1.8,5.88 µM,1.77,4.08 µM,1.76,3.24 µM,2.13,6.97 µM,2.08,5.06 µM,3.21,> 100 µM,6.39,23.9 µM

# From PubChem BioAssay (NCI)
